{"source": "patent US20130225830A1", "about": "“POLYMORPHS OF FEBUXOSTAT” (MAPI PHARMA LIMITED, priority 2010, published 2013)", "format_in_all_cases": "physicochemical", "key": {"[1]": {"assay": "Hygroscopicity measurements (DVS sorption/desorption profiles)", "settings": "25° C.", "experimental": "The sorption/desorption profiles of the forms of the present invention were tested at 25° C. under 0-90% relative humidity. The forms of the present invention were classified according to the following criteria: Deliquescent: Sufficient water is absorbed to form a liquid. […] Hygroscopic: Increase in mass is less than 15% and equal to or greater than 2%. Slightly hygroscopic: Increase in mass is less than 2% and equal to or greater than 0.2%. Non-hygroscopic: Increase in mass is less than 0.2%."}, "[2]": {"assay": "Aqueous solubility measurements", "settings": "for solubility at 24 h: 25 °C, thermodynamic from solid, read-out: HPLC solubility; for pH: final pH of saturated solution", "experimental": "Testing media: water, pH 1.2, 4.5, 6.8, 7.4 USP buffers, 0.01 N HCl, 0.1 N HCl, SGF, FaSSIF, FeSSIF.\nThe various testing media were prepared as follows:\npH 1.2 (USP): 50 mL of 0.2 M potassium chloride solution were placed in a 200 mL volumetric flask to which 85.0 mL of 0.2M hydrochloric acid solution were added followed by the addition of water to obtain the required volume.\npH 4.5 (USP): 50 mL of 0.2 M potassium biphthalate solution were placed in a 200 mL volumetric flask to which 8.8 mL of 0.2 M sodium hydroxide solution were added followed by the addition of water to obtain the required volume.\npH 6.8 (USP): 50 mL of 0.2 M monobasic potassium phosphate solution were placed in a 200 mL volumetric flask to which 22.4 mL of 0.2 M sodium hydroxide solution were added followed by the addition of water to obtain the required volume.\npH 7.4 (USP): 50 mL of 0.2 M monobasic potassium phosphate solution were placed in a 200 mL volumetric flask to which 39.1 mL of 0.2 M sodium hydroxide solution were added followed by the addition of water to obtain the required volume.\nSimulated gastric fluid (SGF): 0.01 N HCl, 0.05% sodium lauryl sulfate, and 0.2% NaCl.\nFasted state simulated intestinal fluid (FaSSIF): 29 mM NaH2PO4, 3 mM Na taurocholate, 0.75 mM lecithin, 103 mM NaCl, and NaOH to obtain pH 6.5.\nFed state simulated intestinal fluid (FeSSIF): 144 mM acetic acid, 15 mM Na taurocholate, 3.75 mM lecithin, 204 mM NaCl, and NaOH to obtain pH 5.0.\nTesting procedure: The tested febuxostat form was placed in each of the different media and was kept shaken for 24 hours at 25° C. Then, the saturated solution was filtered. The concentration of the febuxostat form in filtrate was determined by HPLC. The final pH was then tested. The test was conducted in duplication."}, "[3]": {"assay": "Bulk and tapped density measurements", "experimental": "Bulk density testing: A febuxostat form in an amount which is sufficient to complete the test was passed through a 1.0 mm (No. 18) screen to break up agglomerates that may have formed during storage. The febuxostat form was then weighed (M) and the powder was added into a 10 mL graduated cylinder. The powder was carefully leveled without compacting, and the unsettled apparent volume, Vo, was read. The bulk density, in g per mL, was calculated by the formula: Bulk Density=M/Vo Tapped density testing: A febuxostat form in an amount which is sufficient to complete the test was passed through a 1.0 mm (No. 18) screen to break up agglomerates that may have formed during storage. The febuxostat form was then weighed and the powder was added into a 10 mL graduated cylinder. The powder was carefully leveled without compacting. The cylinder was tapped 500 times initially and the tapped volume, Va, was measured to the nearest graduated unit. The tapping was then repeated for additional 750 times and the tapped volume, Vb, was measured to the nearest graduated unit. If the difference between the two volumes was less than 2%, Vb was taken as the final tapped volume, Vf. The tapped density, in g per mL, was calculated by the formula: Tapped Density=M/Vf"}, "[4]": {"settings": "media 0.01N HCl, 24 hours at 25° C."}, "[5]": {"settings": "media 0.1N HCl, 24 hours at 25° C."}, "[6]": {"settings": "media FaSSIF, 24 hours at 25° C."}, "[7]": {"settings": "media FeSSIF, 24 hours at 25° C."}, "[8]": {"settings": "media pH 1.2 (USP), 24 hours at 25° C."}, "[9]": {"settings": "media pH 4.5 (USP), 24 hours at 25° C."}, "[10]": {"settings": "media pH 6.8 (USP), 24 hours at 25° C."}, "[11]": {"settings": "media pH 7.4 (USP), 24 hours at 25° C."}, "[12]": {"settings": "media water, 24 hours at 25° C."}}, "note": "Read-outs that look alike come from different tables or passages of the source.", "data": [{"smiles": "Cc1nc(-c2ccc(OCC(C)C)c(C#N)c2)sc1C(=O)O", "note": "[Form G of U.S. Pat. No. 6,225,474, 2-(3-cyano-4-isobutoxyphenyl)-4-methyl-5-thiazolecarboxylic acid, reference compound]", "values": [{"measurement": "Change in Mass (%) - ref, Desorption", "setting": "[1]; Target % P/P0 0.0", "value": "−0.013", "unit": "%"}, {"measurement": "Change in Mass (%) - ref, Sorption", "setting": "[1]; Target % P/P0 0.0", "value": 0.000, "unit": "%"}, {"measurement": "Change in Mass (%) - ref, Desorption", "setting": "[1]; Target % P/P0 10.0", "value": 1.323, "unit": "%"}, {"measurement": "Change in Mass (%) - ref, Hysteresis", "setting": "[1]; Target % P/P0 10.0", "value": 0.241, "unit": "%"}, {"measurement": "Change in Mass (%) - ref, Sorption", "setting": "[1]; Target % P/P0 10.0", "value": 1.082, "unit": "%"}, {"measurement": "Change in Mass (%) - ref, Desorption", "setting": "[1]; Target % P/P0 20.0", "value": 1.540, "unit": "%"}, {"measurement": "Change in Mass (%) - ref, Hysteresis", "setting": "[1]; Target % P/P0 20.0", "value": 0.215, "unit": "%"}, {"measurement": "Change in Mass (%) - ref, Sorption", "setting": "[1]; Target % P/P0 20.0", "value": 1.326, "unit": "%"}, {"measurement": "Change in Mass (%) - ref, Desorption", "setting": "[1]; Target % P/P0 30.0", "value": 1.692, "unit": "%"}, {"measurement": "Change in Mass (%) - ref, Hysteresis", "setting": "[1]; Target % P/P0 30.0", "value": 0.219, "unit": "%"}, {"measurement": "Change in Mass (%) - ref, Sorption", "setting": "[1]; Target % P/P0 30.0", "value": 1.473, "unit": "%"}, {"measurement": "Change in Mass (%) - ref, Desorption", "setting": "[1]; Target % P/P0 40.0", "value": 1.806, "unit": "%"}, {"measurement": "Change in Mass (%) - ref, Hysteresis", "setting": "[1]; Target % P/P0 40.0", "value": 0.181, "unit": "%"}, {"measurement": "Change in Mass (%) - ref, Sorption", "setting": "[1]; Target % P/P0 40.0", "value": 1.625, "unit": "%"}, {"measurement": "Change in Mass (%) - ref, Desorption", "setting": "[1]; Target % P/P0 50.0", "value": 1.923, "unit": "%"}, {"measurement": "Change in Mass (%) - ref, Hysteresis", "setting": "[1]; Target % P/P0 50.0", "value": 0.173, "unit": "%"}, {"measurement": "Change in Mass (%) - ref, Sorption", "setting": "[1]; Target % P/P0 50.0", "value": 1.750, "unit": "%"}, {"measurement": "Change in Mass (%) - ref, Desorption", "setting": "[1]; Target % P/P0 60.0", "value": 2.074, "unit": "%"}, {"measurement": "Change in Mass (%) - ref, Hysteresis", "setting": "[1]; Target % P/P0 60.0", "value": 0.158, "unit": "%"}, {"measurement": "Change in Mass (%) - ref, Sorption", "setting": "[1]; Target % P/P0 60.0", "value": 1.915, "unit": "%"}, {"measurement": "Change in Mass (%) - ref, Desorption", "setting": "[1]; Target % P/P0 70.0", "value": 2.229, "unit": "%"}, {"measurement": "Change in Mass (%) - ref, Hysteresis", "setting": "[1]; Target % P/P0 70.0", "value": 0.119, "unit": "%"}, {"measurement": "Change in Mass (%) - ref, Sorption", "setting": "[1]; Target % P/P0 70.0", "value": 2.109, "unit": "%"}, {"measurement": "Change in Mass (%) - ref, Desorption", "setting": "[1]; Target % P/P0 80.0", "value": 2.420, "unit": "%"}, {"measurement": "Change in Mass (%) - ref, Hysteresis", "setting": "[1]; Target % P/P0 80.0", "value": 0.078, "unit": "%"}, {"measurement": "Change in Mass (%) - ref, Sorption", "setting": "[1]; Target % P/P0 80.0", "value": 2.342, "unit": "%"}, {"measurement": "Change in Mass (%) - ref, Desorption", "setting": "[1]; Target % P/P0 90.0", "value": 2.776, "unit": "%"}, {"measurement": "Change in Mass (%) - ref, Sorption", "setting": "[1]; Target % P/P0 90.0", "value": 2.776, "unit": "%"}, {"measurement": "solubility at 24 h", "setting": "[2]; FaSSIF, pH 6.5, fassif, media FaSSIF, 24 hours at 25° C.", "value": 448, "unit": "µg/mL"}, {"measurement": "solubility at 24 h", "setting": "[2]; FeSSIF, pH 5, fessif, media FeSSIF, 24 hours at 25° C.", "value": 132, "unit": "µg/mL"}, {"measurement": "pH", "setting": "[2]; [4]", "value": 1.987}, {"measurement": "pH", "setting": "[2]; [5]", "value": 0.945}, {"measurement": "pH", "setting": "[2]; [6]", "value": 6.384}, {"measurement": "pH", "setting": "[2]; [7]", "value": 4.965}, {"measurement": "pH", "setting": "[2]; media SGF, 24 hours at 25° C.", "value": 2.118}, {"measurement": "pH", "setting": "[2]; [8]", "value": 1.089}, {"measurement": "pH", "setting": "[2]; [9]", "value": 4.469}, {"measurement": "pH", "setting": "[2]; [10]", "value": 6.686}, {"measurement": "pH", "setting": "[2]; [11]", "value": 6.985}, {"measurement": "pH", "setting": "[2]; media water, shaken 24 hours at 25° C.", "value": 8.416}, {"measurement": "Visual solubility", "setting": "[2]; [4]", "value": "few particles"}, {"measurement": "Visual solubility", "setting": "[2]; [5]", "value": "few particles"}, {"measurement": "Visual solubility", "setting": "[2]; [6]", "value": "Turbid + few particles"}, {"measurement": "Visual solubility", "setting": "[2]; [7]", "value": "Turbid + few particles"}, {"measurement": "Visual solubility", "setting": "[2]; media SGF, 24 hours at 25° C.", "value": "few particles"}, {"measurement": "Visual solubility", "setting": "[2]; [8]", "value": "few particles"}, {"measurement": "HPLC solubility", "setting": "[2]; [9]", "value": 0.11, "unit": "µg/mL"}, {"measurement": "Visual solubility", "setting": "[2]; [9]", "value": "few particles"}, {"measurement": "HPLC solubility", "setting": "[2]; [10]", "value": 764.90, "unit": "µg/mL"}, {"measurement": "Visual solubility", "setting": "[2]; [10]", "value": "Turbid + few particles"}, {"measurement": "Visual solubility", "setting": "[2]; [11]", "value": "Slightly Turbid + few"}, {"measurement": "HPLC solubility", "setting": "[2]; [12]", "value": 29.80, "unit": "µg/mL"}, {"measurement": "Visual solubility", "setting": "[2]; [12]", "value": "Turbid + few particles"}, {"measurement": "solubility at 24 h", "setting": "[2]; pH 7.4 USP buffer, pH 7.4, aqueous buffer, media pH 7.4 (USP), 24 hours at 25° C.", "value": 3330, "unit": "µg/mL"}, {"measurement": "Bulk Density", "setting": "[3]", "value": 0.376, "unit": "g/mL"}, {"measurement": "Tapped Density", "setting": "[3]", "value": 0.511, "unit": "g/mL"}]}]}
